Target: Mcl-1 protein (Homo sapiens, UniProt Q07820)
Experiment: Inhibition of Mcl-1 by the fluorescence polarisation technique (Method 1 or Method 2)
Type: binding
Settings: for IC50: fluorescence polarisation, Fluorescein labelled ligand, Method 1 (not underlined) or Method 2 (underlined), read-out: IC50 (μM) Mcl-1 FP
Description: The relative binding potency of each compound was determined via Fluorescence Polarisation (FP).
An 11 point serial dilution of each compound was prepared in DMSO and 2 μl transferred into flat bottomed, low binding, 384-well plate (final DMSO concentration 5%). 38 μl of buffer (10 mM 4-(2-hydroxyethyl)-1-piperazineethanesulfonic acid [HEPES], 150 mM NaCl, 0.05% Tween 20, pH 7.4), containing the Fluorescein labelled ligand (final concentration 1 nM) and Mcl-1 protein (final concentration 5 nM) was then added.
An 11 point serial dilution of each compound was prepared in DMSO and 2 μl transferred into flat bottomed, low binding, 384-well plate (final DMSO concentration 5%). 38 μl of buffer (20 mM Na2HPO4, 1 mM EDTA, 50 mM NaCl, pH 7.4), containing the Fluorescein labelled ligand (final concentration 10 nM) and Mcl-1 protein (final concentration 10 nM) was then added.

[1] = partial inhibitors, @ 50 μM test compound
[2] = partial inhibitors, @ 10 μM test compound

Sequence of Mcl-1 protein (Q07820 whole entry): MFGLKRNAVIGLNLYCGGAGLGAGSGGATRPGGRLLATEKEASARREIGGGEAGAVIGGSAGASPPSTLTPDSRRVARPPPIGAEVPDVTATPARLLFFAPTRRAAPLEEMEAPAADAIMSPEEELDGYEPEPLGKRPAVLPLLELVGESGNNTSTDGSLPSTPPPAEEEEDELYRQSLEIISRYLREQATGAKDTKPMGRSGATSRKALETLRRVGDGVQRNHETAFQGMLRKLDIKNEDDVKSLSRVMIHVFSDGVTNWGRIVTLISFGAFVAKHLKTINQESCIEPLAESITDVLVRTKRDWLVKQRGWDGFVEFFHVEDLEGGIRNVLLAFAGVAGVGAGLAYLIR

Structure (SMILES)	IC50 [µM]	also measured
CCc1sc2ncnc(NC(Cc3ccccc3)C(=O)O)c2c1-c1cccc(F)c1C [Example 69, N-[6-ethyl-(5Sa)-5-(3-fluoro-2-methylphenyl)thieno[2,3-d]pyrimidin-4-yl]-D-phenylalanine]	0.109	
CCc1sc2ncnc(NC(Cc3ccccc3)C(=O)O)c2c1-c1cccc2c1c(Cl)cn2CCN1CCCC1 [Example 233, N-((5Sa)-5-{3-chloro-1-[2-(pyrrolidin-1-yl)ethyl]-1H-indol-4-yl}-6-ethyl-thieno[2,3-d]pyrimidin-4-yl)-D-phenylalanine]	3.41	
CCc1sc2ncnc(NC(Cc3ccccc3OCc3cccc(Cl)c3)C(=O)O)c2c1-c1cccc(Cl)c1C [Example 150, 2-[(3-chlorobenzyl)oxy]-N-[(5Sa)-5-(3-chloro-2-methylphenyl)-6-ethylthieno[2,3-d]pyrimidin-4-yl]-D-phenylalanine]	0.528	
CC(O)c1sc2ncnc(N[C@H](Cc3ccccc3)C(=O)O)c2c1-c1cccc2ccccc12 (single isomer, unassigned) [Example 206, N-[6-(1-hydroxyethyl)-5-(naphthalen-1-yl)thieno[2,3-d]pyrimidin-4-yl]-D-phenylalanine]	8.84	
CCc1sc2ncnc(N[C@H](Cc3ccccc3)C(=O)O)c2c1-c1cccc(O)c1C [Example 67, N-[6-ethyl-5-(3-hydroxy-2-methylphenyl)thieno[2,3-d]pyrimidin-4-yl]-D-phenylalanine]	2.08	
CCc1sc2ncnc(NC(Cc3ccccc3)C(=O)O)c2c1-c1cccc(Br)c1C [Example 97, N-[(5Sa)-5-(3-bromo-2-methylphenyl)-6-ethylthieno[2,3-d]pyrimidin-4-yl]-D-phenylalanine]	0.073	
CCc1sc2ncnc(N[C@H](Cc3ccccc3)C(=O)O)c2c1-c1cccc2cc[nH]c12 (single isomer, unassigned) [Example 71, N-[6-ethyl-5-(1H-indol-7-yl)thieno[2,3-d]pyrimidin-4-yl]-D-phenylalanine]	39	
CCc1sc2ncnc(NC(Cc3ccccc3)C(=O)O)c2c1-c1cccc2c1c(Cl)cn2CCN1CCN(C)CC1 [Example 239, N-((5Ra)-5-{3-chloro-1-[2-(4-methylpiperazin-1-yl)ethyl]-1H-indol-4-yl}-6-ethyl-thieno[2,3-d]pyrimidin-4-yl)-D-phenylalanine]	20.3	
C/C=C\c1sc2ncnc(N[C@H](Cc3ccccc3)C(=O)O)c2c1-c1cccc2ccccc12 [Example 104, N-[(5Sa)-5-(naphthalen-1-yl)-6-((1Z)-prop-1-en-1-yl)thieno[2,3-d]pyrimidin-4-yl]-D-phenylalanine]	0.046	
CCc1sc2ncnc(NC(Cc3ccccc3F)C(=O)O)c2c1-c1cccc2ccccc12 [Example 181, N-[6-ethyl-(5Sa)-5-(naphthalen-1-yl)thieno[2,3-d]pyrimidin-4-yl]-2-fluoro-D-phenylalanine]	0.299	
CCc1sc2ncnc(N[C@H](Cc3ccccc3OCCN3CCN(C)CC3)C(=O)O)c2c1-c1cccc(Cl)c1C [Example 153, N-[(5Ra)-5-(3-chloro-2-methylphenyl)-6-ethylthieno[2,3-d]pyrimidin-4-yl]-2-[2-(4-methylpiperazin-1-yl)ethoxy]-D-phenylalanine]		percentage fluorescence polarisation inhibition, Mcl-1 FP [1]: 75.7% @ 50 μM
CCc1sc2ncnc(N[C@H](Cc3ccccc3)C(=O)O)c2c1-c1cccc2cccnc12 [Example 99, N-[6-ethyl-5-(quinolin-8-yl)thieno[2,3-d]pyrimidin-4-yl]-D-phenylalanine]		inhibition at 200 µM (partial inhibitors, @ 200 μM test compound, read-out: percentage fluorescence polarisation inhibition, Mcl-1 FP): 28.3%
CCc1sc2ncnc(NC(Cc3ccccc3)C(=O)O)c2c1-c1ccc(OCCN2CCN(C)CC2)c(Cl)c1C [Example 62, N-((5Sa)-5-{3-chloro-2-methyl-4-[2-(4-methylpiperazin-1-yl)ethoxy]phenyl}-6-ethylthieno[2,3-d]pyrimidin-4-yl)-D-phenylalanine]	0.06	
CCc1sc2ncnc(N[C@@H](C(=O)O)c3ccccc3)c2c1-c1cccc2ccccc12 (single isomer, unassigned) [Example 161]	12.6	
CCc1sc2ncnc(NC(Cc3ccccc3)C(=O)O)c2c1-c1cccc2c1c(Cl)cn2CCN1CCN(C)CC1 [Example 238, N-((5Sa)-5-{3-chloro-1-[2-(4-methylpiperazin-1-yl)ethyl]-1H-indol-4-yl}-6-ethyl-thieno[2,3-d]pyrimidin-4-yl)-D-phenylalanine]	2.78	
CCc1sc2ncnc(N[C@H](Cc3ccncc3)C(=O)O)c2c1-c1cccc2ccccc12 [Example 193, N-[6-ethyl-5-(naphthalen-1-yl)thieno[2,3-d]pyrimidin-4-yl]-3-pyridin-4-yl-D-alanine]	36.5	

Structure (SMILES)	IC50 [µM]	also measured
CCc1sc2ncnc(N[C@H](Cc3cccnc3)C(=O)O)c2c1-c1cccc2ccccc12 [Example 192, N-[6-ethyl-5-(naphthalen-1-yl)thieno[2,3-d]pyrimidin-4-yl]-3-pyridin-3-yl-D-alanine]	2.08	
O=C(O)C(Cc1ccccn1)Nc1ncnc2sc(C(F)F)c(-c3cccc4ccccc34)c12 [Example 251, N-[6-(difluoromethyl)-(5Ra)-5-(naphthalen-1-yl)thieno[2,3-d]pyrimidin-4-yl]-3-pyridin-2-yl-D-alanine]	12.1	
Cc1sc2ncnc(N[C@H](Cc3ccccc3)C(=O)O)c2c1-c1cccc2ccccc12 [Example 196, N-[6-methyl-5-(naphthalen-1-yl)thieno[2,3-d]pyrimidin-4-yl]-D-phenylalanine]	2.91	
CCc1sc2ncnc(NC(Cc3ccccc3)C(=O)O)c2c1-c1cccc(Br)c1C [Example 96, N-[(5Ra)-5-(3-bromo-2-methylphenyl)-6-ethylthieno[2,3-d]pyrimidin-4-yl]-D-phenylalanine]	1.63	
CCc1sc2ncnc(NC(Cc3ccccc3)C(=O)O)c2c1-c1cc(Cl)c(OCCN2CCN(C)CC2)c(Cl)c1C [Example 55, N-((5Ra)-5-{3,5-dichloro-2-methyl-4-[2-(4-methylpiperazin-1-yl)ethoxy]phenyl}-6-ethylthieno[2,3-d]pyrimidin-4-yl)-D-phenylalanine]	8.84	
CCc1sc2ncnc(NC(Cc3ccccc3)C(=O)O)c2c1-c1cccc(OC)c1C [Example 75, N-[6-ethyl-(5Sa)-5-(3-methoxy-2-methylphenyl)thieno[2,3-d]pyrimidin-4-yl]-D-phenylalanine]	0.28	
CCc1sc2ncnc(N[C@H](Cc3ccccc3OCCCN(C)C)C(=O)O)c2c1-c1cccc(Cl)c1C [Example 157, N-[(5Ra)-5-(3-chloro-2-methylphenyl)-6-ethylthieno[2,3-d]pyrimidin-4-yl]-2-[3-(dimethylamino)propoxy]-D-phenylalanine]		percentage fluorescence polarisation inhibition, Mcl-1 FP [1]: 62.05% @ 50 μM
CC#Cc1sc2ncnc(N[C@H](Cc3ccccc3OCc3ccnn3C(C)(C)C)C(=O)OCC)c2c1-c1ccc(OCCN2CCN(C)CC2)c(Cl)c1C [Example 257, ethyl 2-[(1-tert-butyl-1H-pyrazol-5-yl)methoxy]-N-[(5Sa)-5-{3-chloro-2-methyl-4-[2-(4-methylpiperazin-1-yl)ethoxy]phenyl}-6-(prop-1-yn-1-yl)thieno[2,3-d]pyrimidin-4-yl]-D-phenylalaninate]		percentage fluorescence polarisation inhibition, Mcl-1 FP [2]: 57.15% @ 10 μM
CCc1sc2ncnc(NC(Cc3ccccc3OCC(=O)N(C)C)C(=O)O)c2c1-c1cccc(Cl)c1C [Example 141, N-[(5Ra)-5-(3-chloro-2-methylphenyl)-6-ethylthieno[2,3-d]pyrimidin-4-yl]-2-[2-(dimethylamino)-2-oxoethoxy]-D-phenylalanine]		percentage fluorescence polarisation inhibition, Mcl-1 FP [2]: 26.78% @ 10 μM
CCc1sc2ncnc(NC(Cc3ccc(F)cc3)C(=O)O)c2c1-c1cccc2ccccc12 [Example 177, N-[6-ethyl-(5Sa)-5-(naphthalen-1-yl)thieno[2,3-d]pyrimidin-4-yl]-4-fluoro-D-phenylalanine]	0.957	
CCc1sc2ncnc(NC(Cc3ccccc3)C(=O)O)c2c1-c1cccc2c1c(Cl)cn2CCCN1CCN(C)CC1 [Example 240, N-((5Sa)-5-{3-chloro-1-[3-(4-methylpiperazin-1-yl)propyl]-1H-indol-4-yl}-6-ethyl-thieno[2,3-d]pyrimidin-4-yl)-D-phenylalanine]	0.958	
CCc1sc2ncnc(N[C@@H](C(=O)O)c3cccc(-c4ccccc4)c3)c2c1-c1cccc2ccccc12 (single isomer, unassigned) [Example 189]	8.33	
CCc1sc2ncnc(NC(CC3CCCCC3)C(=O)O)c2c1-c1cccc2ccccc12 [Example 165, 3-cyclohexyl-N-[6-ethyl-(5Ra)-5-(naphthalen-1-yl)thieno[2,3-d]pyrimidin-4-yl]-D-alanine]	0.315	
CCc1sc2ncnc(N[C@H](Cc3ccccc3OC)C(=O)O)c2c1-c1cccc2ccccc12 [Example 182, N-[6-ethyl-5-(naphthalen-1-yl)thieno[2,3-d]pyrimidin-4-yl]-2-methoxy-D-phenylalanine]	0.407	
CCc1sc2ncnc(N[C@H](C(=O)O)[C@H](O)c3ccccc3)c2c1-c1cccc(Cl)c1C [Example 124, (βR)—N-[(5Ra)-5-(3-chloro-2-methylphenyl)-6-ethylthieno[2,3-d]pyrimidin-4-yl]-beta-hydroxy-L-phenylalanine]		percentage fluorescence polarisation inhibition, Mcl-1 FP [1]: 75.7% @ 50 μM
CC(C)c1sc2ncnc(N[C@H](Cc3ccccc3)C(=O)O)c2c1-c1cccc2ccccc12 (single isomer, unassigned) [Example 201, N-[5-(naphthalen-1-yl)-6-(propan-2-yl)thieno[2,3-d]pyrimidin-4-yl]-D-phenylalanine]	0.136	
